Results published in ChEMBL document CHEMBL4477164, “Domino Synthesis of Embelin Derivatives with Antibacterial Activity” (2016).
Calls of active or inactive are those of the source. The rule behind the calls is not given here.

What was measured:
Staphylococcus aureus [1] = assay: Antibacterial activity against vancomycin/methicillin-sensitive Staphylococcus aureus ATCC 25923 assessed as bacterial growth inhibition after 24 hrs by broth dilution method; format: functional; conditions: ATCC 25923, 24 h
Staphylococcus aureus [2] = assay: Antibacterial activity against vancomycin-intermediate/methicillin-resistant Staphylococcus aureus NRS402 assessed as bacterial growth inhibition after 24 hrs by broth dilution method; format: functional; conditions: NRS402, 24 h
Escherichia coli = assay: Antibacterial activity against Escherichia coli assessed as bacterial growth inhibition after 24 hrs by broth dilution method; format: functional, organism-based
Pseudomonas aeruginosa = assay: Antibacterial activity against Pseudomonas aeruginosa assessed as bacterial growth inhibition after 24 hrs by broth dilution method; format: functional, organism-based

`CCCCCCCCCCCC1=C(O)C(=O)C([C@H]2[C@H](C)CC[C@@H]2C(C)(C)OCC)=C(O)C1=O` (racemic) was tested, and the MIC (Staphylococcus aureus [1]) was > 128 µM, the MIC (Staphylococcus aureus [2]) was > 128 µM and the Activity (Escherichia coli) was “inactive”. For the same compound, the Activity (Pseudomonas aeruginosa) was “inactive”.
In the case of `CCCCCCCCCCCC1=C(O)C(=O)C=C(O)C1=O` [EMBELIN], the MIC (Staphylococcus aureus [1]) is reported as 32 µM, the MIC (Staphylococcus aureus [2]) is reported as 16 µM and the Activity (Escherichia coli) is reported as “inactive”. For the same compound, the Activity (Pseudomonas aeruginosa) was “inactive”.
For `CCCCCCCCCCCC1=C(O)C(=O)C2=C(OC(C)(C)[C@@H]3COc4ccc(OCC=C(C)C)cc4[C@H]23)C1=O` (relative stereo), the MIC (Staphylococcus aureus [1]) was > 128 µM, the MIC (Staphylococcus aureus [2]) was > 128 µM and the Activity (Escherichia coli) was “inactive”. The Activity (Pseudomonas aeruginosa) was “inactive”.
`CCCCCCCCCCCC1=C(O)C(=O)C2=C(OC(C)(C)[C@H]3COc4ccc(Br)cc4[C@H]23)C1=O` (relative stereo) was tested, and the MIC (Staphylococcus aureus [1]) was 16 µM, the MIC (Staphylococcus aureus [2]) was 32 µM and the Activity (Escherichia coli) was “inactive”. The Activity (Pseudomonas aeruginosa) was “inactive”.
In the case of `CCCCCCCCCCCC1=C(O)C(=O)C2=C(OC(C)(C)[C@@H]3COc4ccc(Br)cc4[C@H]23)C1=O` (relative stereo), the MIC (Staphylococcus aureus [1]) is reported as 16 µM, the MIC (Staphylococcus aureus [2]) is reported as 32 µM and the Activity (Escherichia coli) is reported as “inactive”. The Activity (Pseudomonas aeruginosa) was “inactive”.
`Cc1onc(-c2ccccc2)c1C(=O)N[C@@H]1C(=O)N2[C@@H]1SC(C)(C)[C@@H]2C(=O)O` [OXACILLIN] was tested, and the MIC (Staphylococcus aureus [1]) was < 1 µg/mL and the MIC (Staphylococcus aureus [2]) was > 128 µg/mL.
`CCCCCCCCCCCC1=C(O)C(=O)C2=C(OC(C)(C)[C@H]3COc4ccc(OCC=C(C)C)cc4[C@H]23)C1=O` (relative stereo) was tested, and the MIC (Staphylococcus aureus [1]) was > 128 µM, the MIC (Staphylococcus aureus [2]) was > 128 µM and the Activity (Escherichia coli) was “inactive”. For the same compound, the Activity (Pseudomonas aeruginosa) was “inactive”.
In the case of `CN[C@H](CC(C)C)C(=O)N[C@H]1C(=O)N[C@@H](CC(N)=O)C(=O)N[C@H]2C(=O)N[C@H]3C(=O)N[C@H](C(=O)N[C@H](C(=O)O)c4cc(O)cc(O)c4-c4cc3ccc4O)[C@H](O)c3ccc(c(Cl)c3)Oc3cc2cc(c3O[C@@H]2O[C@H](CO)[C@@H](O)[C@H](O)[C@H]2O[C@H]2C[C@](C)(N)[C@H](O)[C@H](C)O2)Oc2ccc(cc2Cl)[C@H]1O` [VANCOMYCIN], the MIC (Staphylococcus aureus [1]) is reported as < 1 µg/mL.
With `CCCCCCCCCCCC1=C(O)C(=O)C2=C(OC(C)(C)[C@H]3COc4cc(OC)ccc4[C@H]23)C1=O` (relative stereo) the MIC (Staphylococcus aureus [1]) was 64 µM, the MIC (Staphylococcus aureus [2]) was 4 µM and the Activity (Escherichia coli) was “inactive”. The Activity (Pseudomonas aeruginosa) was “inactive”.
In the case of `CCCCCCCCCCCC1=C(O)C(=O)C2=C(OC(C)(C)[C@@H]3COc4cc(OC)ccc4[C@H]23)C1=O` (relative stereo), the MIC (Staphylococcus aureus [1]) is reported as 8 µM, the MIC (Staphylococcus aureus [2]) is reported as 1 µM and the Activity (Escherichia coli) is reported as “inactive”. For the same compound, the Activity (Pseudomonas aeruginosa) was “inactive”.
For `CCCCCCCCCCCC1=C(O)C(=O)C2=C(OC(C)(C)[C@@H]3COc4ccc5ccccc5c4[C@H]23)C1=O` (racemic), the MIC (Staphylococcus aureus [1]) was > 128 µM, the MIC (Staphylococcus aureus [2]) was > 128 µM and the Activity (Escherichia coli) was “inactive”. For the same compound, the Activity (Pseudomonas aeruginosa) was “inactive”.
For `CCCCCCCCCCCC1=C(O)C(=O)C2=C(OC(C)(C)[C@H]3CC[C@@H](C)[C@H]23)C1=O` (racemic), the MIC (Staphylococcus aureus [1]) was 64 µM, the MIC (Staphylococcus aureus [2]) was 4 µM and the Activity (Escherichia coli) was “inactive”. For the same compound, the Activity (Pseudomonas aeruginosa) was “inactive”.
With `CCCCCCCCCCCC1=C(O)C(=O)C2=C(OC(C)(C)[C@H]3COc4ccc(Cl)cc4[C@H]23)C1=O` (relative stereo) the MIC (Staphylococcus aureus [1]) was 4 µM, the MIC (Staphylococcus aureus [2]) was 2 µM and the Activity (Escherichia coli) was “inactive”. For the same compound, the Activity (Pseudomonas aeruginosa) was “inactive”.
For `CCCCCCCCCCCC1=C(O)C(=O)C2=C(OC(C)(C)[C@H]3CC[C@H](C)C[C@H]23)C1=O`, the MIC (Staphylococcus aureus [1]) was 8 µM, the MIC (Staphylococcus aureus [2]) was 1 µM and the Activity (Escherichia coli) was “inactive”. The Activity (Pseudomonas aeruginosa) was “inactive”.
With `CCCCCCCCCCCC1=C(O)C(=O)C2=C(OC(C)(C)[C@@H]3COc4ccc(Cl)cc4[C@H]23)C1=O` (relative stereo) the MIC (Staphylococcus aureus [1]) was 4 µM, the MIC (Staphylococcus aureus [2]) was 1 µM and the Activity (Escherichia coli) was “inactive”. The Activity (Pseudomonas aeruginosa) was “inactive”.
In the case of `C/C(=C\C(=O)OCCCCCCCCC(=O)O)C[C@@H]1OC[C@H](C[C@@H]2O[C@H]2[C@@H](C)[C@H](C)O)[C@@H](O)[C@H]1O` [MUPIROCIN], the MIC (Staphylococcus aureus [1]) is reported as < 1 µg/mL and the MIC (Staphylococcus aureus [2]) is reported as < 1 µg/mL.
